Results published in US9889183B2, “PKC activators and anticoagulant in regimen for treating stroke” (BLANCHETTE ROCKEFELLER NEUROSCIENCES INSTITUTE, priority 2010, dated 2018).

What was measured:
PKCγ = target: T1, PKCγ (Homo sapiens, UniProt P05129); assay: PKC isozyme specificity, PKCγ; assay type: biochemical; settings: 50-100 μM; data not shown
T1 construct: purchased Calbiochem
Description: (§1) Protein kinase C assay. Rat hippocampal cells were cultured and scraped in 0.2 ml homogenization buffer (20 mM Tris-HCl, pH 7.4, 50 mM NaF, 1 μg/ml leupeptin, and 0.1 mM PMSF) and homogenized by sonication a Marsonix microprobe sonicator (5 sec, 10 W). To measure PKC, 10 μl of cell homogenate or purified PKC isozyme (purchased from Calbiochem) was incubated for 15 min at 37° C. in the presence of 10 μM histones, 4.89 mM CaCl2, 1.2 μg/μl phosphatidyl-L-serine, 0.18 μg/μl 1,2-dioctanoyl-sn-glycerol, 10 mM MgCl2, 20 mM HEPES (pH 7.4), 0.8 mM EDTA, 4 mM EGTA, 4% glycerol, 8 μg/ml aprotinin, 8 μg/ml leupeptin, and 2 mM benzamidine. […][^γ32P]ATP was added and ^32P-phosphoprotein formation was measured by adsorption onto phosphocellulose as described previously. Nelson and Alkon, J. Neurochemistry (1995), vol. 65, pp. 2350-2357. For measurements of activation by BR-101 (DCP-LA) and similar compounds. PKC activity was measured in the absence of diacylglycerol and phosphatidylserine and PKC δ, ε, η, and μ were measured in the absence of added EGTA and CaCl2, as described by Kanno et al. (J. Lipid Res. 2006, vol. 47, pp. 1146-1150). […]
(§2) To determine their PKC isozyme specificity, fatty acid derivatives were preincubated with purified PKC for five minutes and the PKC activity was measured radiometrically.

PKCδ = target: T2, PKCδ (Homo sapiens, UniProt Q05655); assay: PKC isozyme specificity, PKCδ; assay type: biochemical; settings: about 1-100 μM; data not shown
T2 construct: purchased Calbiochem
Description: as §1, §2

[1] = tested on: global cerebral ischemia/hypoxia in rats; assay: Global cerebral ischemia/hypoxia, spatial learning and memory (Example 12); assay type: in vivo, rat
Description: Global cerebral ischemialhypoxia was induced in male Wistar rats (225-250 g) by permanently occluding the bilateral common carotid arteries, combined with about 14 minutes of low oxygen (about 5%). […] Spatial learning (2 trials/day for 4 days) and memory (a probe test of 1 minute, 24 hours after the last trial) task was performed 9 days after the last dose. Overall, there was a significant difference between the groups (F3,255=31.856, p<0.001) and groups x trials (F21,255=1.648, p<0.05). Global cerebral ischemia impaired the spatial learning (ischemial vs. sham-operated F1,127=[…]).

[2] = tested on: ischemic stroke (middle cerebral artery occlusion) in rats; assay: Focal ischemia (MCAO) model of stroke; assay type: in vivo, rat
Description: A transient animal model of focal ischemia was used for these experiments. The middle cerebral artery (MCA) was surgically dissected and occluded in anesthetized rats by ligature, followed by reperfusion after a defined period (about 2 hours). Animal models transient ischemia via occlusion of the MCA (MCAO) are well-known and described in, e.g., Sicard and Fisher, Exp. & Transl. Stroke Med. (2009), vol. 1, pp. 1-7.

[3] = tested on: global cerebral ischemia/hypoxia in rats; assay: Global ischemia model, water maze (Examples 10-11); assay type: in vivo, rat
Description: Rats (male, Wistar, 200-225 g) were randomly divided into 6 groups (8 each) and housed for 1 week before experimentation. […] The global ischemia model used to induce vascular memory impairment was two-vessel occlusion combined with a short term systemic hypoxia. Ligation of the bilateral common carotid arteries was performed under anesthesia (pentobarbital, 60 mg/kg, i.p.). After a one-week recovery from the surgery, rats were exposed to 14-min hypoxia (5% oxygen in a glass jar). Control rats (sham operated and vehicle controls) were subjected to the same incision to isolate both common carotid arteries and to 14-min air (in the glass jar). Body temperature was kept at 37-37.5° C. using a heating light source during the surgical procedure and until the animals were fully recovered.

[4] = rTPA at 2 hours followed 6 hours later with bryostatin-1, vs rTPA alone

T2 sequence (Q05655 whole entry): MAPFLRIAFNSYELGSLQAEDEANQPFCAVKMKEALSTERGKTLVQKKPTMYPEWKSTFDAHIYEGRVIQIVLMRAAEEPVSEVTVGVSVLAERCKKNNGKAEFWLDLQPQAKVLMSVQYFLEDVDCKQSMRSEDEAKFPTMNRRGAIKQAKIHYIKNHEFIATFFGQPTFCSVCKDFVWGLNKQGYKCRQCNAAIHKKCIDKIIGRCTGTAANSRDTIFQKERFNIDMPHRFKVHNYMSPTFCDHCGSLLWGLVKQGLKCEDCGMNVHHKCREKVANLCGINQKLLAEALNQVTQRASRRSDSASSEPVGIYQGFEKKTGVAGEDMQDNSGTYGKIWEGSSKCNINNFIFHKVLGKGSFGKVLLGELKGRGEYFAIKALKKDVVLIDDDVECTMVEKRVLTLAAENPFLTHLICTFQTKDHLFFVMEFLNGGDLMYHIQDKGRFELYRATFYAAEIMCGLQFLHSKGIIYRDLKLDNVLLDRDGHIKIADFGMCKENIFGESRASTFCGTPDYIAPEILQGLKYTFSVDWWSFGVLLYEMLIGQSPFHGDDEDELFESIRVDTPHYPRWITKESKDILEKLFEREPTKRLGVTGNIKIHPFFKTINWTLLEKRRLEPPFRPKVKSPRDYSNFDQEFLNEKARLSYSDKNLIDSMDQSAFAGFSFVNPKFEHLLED

Row | SMILES | effect on PKCγ (PKCγ) | effect on PKCδ (PKCδ) | memory retention (target quadrant preference) after ischemia ([1]; 15 μg/m^2, ischemic rats) | spatial learning, Bryostatin-1 alone vs sham-operated ([1]; 15 μg/m^2, non-ischemic rats) | target quadrant preference, Bryostatin-1 alone vs sham-operated ([1]; 15 μg/m^2, non-ischemic rats) | spatial learning impairment after ischemia ([1]; 15 μg/m^2 tail vein, 2 doses/week, 10 doses, start about 24 hours after event, tested 9 days after last dose) | brain edema ([2]; bryostatin-1 2 hours after stroke, rTPA 6 hours later, vs rTPA alone) | reduction of assayed hemoglobin in the cortex and striatum ([2]; bryostatin-1 2 hours after stroke, rTPA 6 hours later, vs rTPA at 6 hours alone) [%] | mortality 24 hours later ([2]; rTPA 6 hours after the stroke, followed 2 hours later with bryostatin-1, rats) [%] | uptake of Evans Blue dye in ipsilateral and contralateral cortices (BBB permeability) [2, 4] | uptake of NaF in ipsilateral and contralateral cortices [2, 4] | water maze spatial learning, ischemic treated vs ischemic rats ([3]; bryostatin-1 20 μg/m^2 i.v. 2 doses/week, 10 doses, MCDA 1.0 mg/kg i.p. daily 5 weeks, start 24 hours after hypoxia) | water maze spatial learning, drug-only vs control rats ([3]; non-ischemic rats, same regimens) | water maze spatial learning, ischemic treated vs control rats ([3]; same regimens)
1 | CCCCCC1CC1CC1CC1CCCCCCCC(=O)O (centres unmarked) [BR-101, 2-[(2-pentylcyclopropyl)methyl]cyclopropaneoctanoic acid] | activated | partially inhibited |  |  |  |  |  |  |  |  |  |  |  | 
2 | CCC/C=C/C=C/C(=O)O[C@H]1/C(=C/C(=O)OC)C[C@H]2C[C@H]([C@@H](C)O)OC(=O)C[C@H](O)C[C@@H]3C[C@H](OC(C)=O)C(C)(C)[C@](O)(C[C@@H]4C/C(=C/C(=O)OC)C[C@H](/C=C/C(C)(C)[C@]1(O)O2)O4)O3 [Bryostatin-1, bryostatin-1] |  |  | effectively restored memory retention | did not affect the learning | no significant effects | restored | significantly reduced | 50 | 0 | significantly reduced | reduced | greatly improved the performance | no differences | did not differ statistically
